In patent US12527801B2, “Cell activator of animal cell” (Vitamin C60 BioResearch Corporation, priority 2019, dated 2026):

Test system: Normal human epidermal keratinocytes
Test: Action of activating epidermal cells (MTT reduction)
Assay type: cell-based
Settings: for Index (%) Mean ± S.D.: 48 h, untreated cells = 100
Method: Normal human epidermal keratinocytes were seeded on 96-well plates at the density of 5.0×10^3 cells/well using a HuMedia KG2 medium (KG2). 24 hours after seeding, the above-mentioned medium was replaced with a HuMedia KB2 medium (KB2) comprising the test sample. AOH and AHX (2-azahypoxanthine) were used as test samples, KG2 as a positive control (P. C.) for the cell activating action was treated instead of the test sample, and cells which were not treated with the samples were used as a negative control. After culturing for 48 hours, the above-mentioned medium was replaced with KB2 comprising 0.2 mg/mL of MTT to perform culturing for 1 hour. After removing the medium, the absorbance at 550 nm and 650 nm of the cell lysate in which 2-propanol was added to lyse the cells was measured. The amount of MTT reduced to blue formazan was obtained by subtracting the absorbance at 650 nm, which was derived from the cell turbidity, from the absorbance at 550 nm. The action of activating epidermal keratinocytes was shown as Index (%), which is a percentage of the absorbance of the cells, which was treated with the test samples, to the absorbance of the cells, which was not treated with the samples (negative control), with the amount of MTT reduced as an index.

O=c1[nH]nnc2[nH]cnc12 [AHX, 7H-imidazo[4,5-d][1,2,3]triazin-4(3H)-one, reference compound]
Index (%) Mean ± S.D. (3.9 μg/mL): 100.6 ± 3%
Index (%) Mean ± S.D. (7.8 μg/mL): 96.1 ± 2.7%
Index (%) Mean ± S.D. (15.6 μg/mL): 94 ± 5.9%
Index (%) Mean ± S.D. (31.3 μg/mL): 87.1 ± 4.5%
Index (%) Mean ± S.D. (62.5 μg/mL): 80.2 ± 1.8%
Index (%) Mean ± S.D. (125 μg/mL): 77.4 ± 2^ %
Index (%) Mean ± S.D. (250 μg/mL): 78.4 ± 1.8%
Index (%) Mean ± S.D. (500 μg/mL): 74.2 ± 1.9%
change in Index (concentration of 31.3 μg/mL or more): significantly reduced
proliferative effect / cell activating action (epidermal keratinocytes): did not have a proliferative effect
